Assay results reported in patent US20050054103A1, “Expansion of renewable stem cell populations using modulators of PI 3-kinase” (priority 2003, published 2005).

How the values were obtained:
mononuclear cells = test: RAR antagonist treatment of mononuclear cell fraction cultures; assay type: cell-based, human; settings: Cytokines + RAR antagonist 10^−6 M; for % CD34/Lin^−: reselected CD34+ fraction
Protocol: Human blood cells were obtained from umbilical cord blood from female patients following full-term, normal delivery (informed consent was obtained). Samples were collected and processed within 12 hours postpartum. Blood was mixed with 3% Gelatin (Sigma, St. Louis, Mo.), sedimented for 30 minutes to remove most red blood cells. The leukocyte-rich fraction was harvested and layered on a Ficoll-Hypaque gradient (1.077 gram/ml; Sigma), and centrifuged at 400 g for 30 minutes. The mononuclear cell fraction in the interface layer was collected, washed three times and resuspended in phosphate-buffered saline (PBS) solution (Biological Industries) containing 0.5% bovine serum albumin (BSA, Fraction V; Sigma).
Alternatively, whole mononuclear fraction cells (MNC) were isolated, cultured and supplemented with cytokines, as above.
CD34^+ purified and whole MNC cultures were prepared and maintained as described above. AGN 194310 RAR antagonist was added to test cultures at concentrations ranging from […] [or 410 μg/l to 4.1×10^−5 μg/l]. The antagonist was added for a predetermined, limited period, for up to three weeks or continuously during the entire culture period.
CD34 surface expression on short and long-term cultures initiated either with purified CD34^+ cells or the entire MNC fraction was determined as follows: CD34^+ cells were positively reselected (Miltenyi kit) and counted. Purity was confirmed by subsequent FACS and cell morphology analysis.
Reselected CD34^+ cell subsets were stained for the following combination of antigens: CD34PE/CD38FITC and CD34PE/38, 33, 14, 15, 3, 4, 61, 19 (Lin) FITC. The fraction positive for CD34 and negative for CD38 was defined as CD34^+CD38^−. The fraction positive for CD34 and negative for LIN was defined as CD34^+Lin^− cell fraction.

Hepatocytes = test: Hepatocyte cultures ex-vivo expanded with TEPA; assay type: cell-based, BALB/c mice; settings: 15 μg/ml TEPA, five weeks
Protocol: Hepatocytes: Livers were dissected from anesthetized BALB/c mice with sterile tools and immersed into F12 culture medium (Biological Industries, Kibbutz Bet Ha'Emek, Israel). The livers were washed three times with 3% BSA/PBS buffer and minced into small pieces with seizures. Following three washes with 3% BSA/PBS the liver tissue pieces were incubated for 30 minutes with 0.05% collagenase at 37° C. with continuos shaking under 5% CO2 atmosphere. The digested liver tissue pieces were than mashed by pressing through a fine mesh strainer. After three washes with 3% BSA/PBS the liver cells were seeded into F12 culture medium enriched with: 15 mM HEPES buffer, […], 10 mM sodium bicarbonate, 0.5 u/ml insulin, 7.5 ng/ml hydrocortisone and with or without 15 μg/ml of TEPA and incubated at 37° C. in a 5% CO2 atmosphere. After overnight incubation the medium was removed and the cells were supplemented with fresh enriched F12 medium as described above with or without 15 μg/ml of TEPA. Hepatocytes were incubated in 35 mm dishes for several weeks with enriched F12 culture medium with or without 15 μg/ml TEPA at 37° C. under 5% CO2 atmosphere. Cell culture medium was replaced every week with a fresh medium.

NOD/SCID mice = test: Engraftment of SCID mice by ex-vivo expanded human hematopoietic cells; assay type: in vivo; settings: for Engraftment CD19 (%) / Engraftment CD34 (%) / Engraftment CD45 (%) / Engraftment Colonies (per 2 × 10^5 SCID BM cells): TEPA + Cytokines
Protocol: Engraftment of SCID mice by ex-vivo expanded human hematopoietic cells: […] After 4 weeks, the mice were sacrificed and their femora and tibias were excised and the bone marrow flushed with a syringe fitted with a 25 gauge needle. A single cell suspension was prepared, the cells were washed and an aliquot counted with Trypan blue. In order to quantitate engrafted cells of human origin, cells were stained with FITC-conjugated anti CD45 antibodies and PE-conjugated either anti CD34, CD19 or CD33 antibodies. Anti CD45 antibodies recognize human, but not mouse, cells, and thus, indicates the human origin of the cells. The proliferation and differentiation potential of the engrafted cells was assayed by cloning bone marrow cells in semi-solid medium under conditions that allow specifically growth of human derived colonies essentially as described in (56).

[1] = tested on: lethally irradiated Balb/c X C57B1/6 F1 mice; test: Hematopoietic reconstitution of lethally irradiated mice, fresh vs. ex-vivo expanded cells; assay type: in vivo
Protocol: Hematopoietic reconstitution of lethally irradiated mice—fresh vs. ex-vivo expanded cells: Three month old female Balb/c X C57B1/6 F1 mice were lethally irradiated (1000 rad) and transplanted one day later with 1×10^5 fresh bone marrow cells or the yield of 1×10^5 bone marrow cells expanded ex-vivo either with or without TEPA for 3 to 5 weeks, as detailed in Table 12. Peripheral blood WBC counts were performed on weekly basis.

[2] = CB 2 (first listed) 10% FCS, 2 weeks ex-vivo
[3] = CB 2 (second listed) 10% FCS, 2 weeks ex-vivo
[4] = Exp. I, 3 weeks ex-vivo with TEPA + cytokines, day 13
[5] = Exp. I, 3 weeks ex-vivo with TEPA + cytokines, day 19
[6] = Exp. II, 3 weeks ex-vivo with TEPA + cytokines, day 11
[7] = Exp. II, 3 weeks ex-vivo with TEPA + cytokines, day 29
[8] = Exp. III, 5 weeks ex-vivo with TEPA + cytokines, day 6
[9] = Exp. III, 5 weeks ex-vivo with TEPA + cytokines, day 11

## CCc1ccc(C2=CC(C)(C)Sc3ccc(C#Cc4ccc(C(=O)O)cc4)cc32)cc1 [AGN 194310]
Mononuclear cells; 2 weeks
  No of CD34^+/Lin^− × 10^4 (cumulative value): 132.5 × 10^4
  No of CD34 cells × 10^4 (cumulative value): 169 × 10^4
  % CD34/Lin^−: 78%
Mononuclear cells; 5 weeks
  No of CD34^+/Lin^− × 10^4 (cumulative value): 237.8 × 10^4
  No of CD34 cells × 10^4 (cumulative value): 985 × 10^4
  % CD34/Lin^−: 24%

## NCCNCCNCCNCCN [TEPA, tetraethylenepentamine]
Hepatocytes
  cell content of hepatocyte cultures: contained many dividing and undifferentiated cells
NOD/SCID mice; [2]
  Engraftment CD19 (%): 11%
  Engraftment CD34 (%): 13%
  Engraftment CD45 (%): 56%
  Engraftment Colonies (per 2 × 10^5 SCID BM cells): 330
NOD/SCID mice; [3]
  Engraftment CD19 (%): 9%
  Engraftment CD34 (%): 13.5%
  Engraftment CD45 (%): 48%
  Engraftment Colonies (per 2 × 10^5 SCID BM cells): 528
NOD/SCID mice; CB 3 10% FCS, 2 weeks ex-vivo
  Engraftment CD19 (%): 5%
  Engraftment CD34 (%): 4%
  Engraftment CD45 (%): 20%
  Engraftment Colonies (per 2 × 10^5 SCID BM cells): 100
NOD/SCID mice; CB 4 1% FCS, 2 weeks ex-vivo
  Engraftment CD19 (%): 8%
  Engraftment CD34 (%): 7%
  Engraftment CD45 (%): 28%
  Engraftment Colonies (per 2 × 10^5 SCID BM cells): 185
NOD/SCID mice; CB 4 1% FCS, 4 weeks ex-vivo
  Engraftment CD19 (%): 14%
  Engraftment CD34 (%): 9%
  Engraftment CD45 (%): 40%
  Engraftment Colonies (per 2 × 10^5 SCID BM cells): 267
NOD/SCID mice; CB 5- FCS, 4 weeks ex-vivo
  Engraftment CD19 (%): 9%
  Engraftment CD34 (%): 6%
  Engraftment CD45 (%): 21%
  Engraftment Colonies (per 2 × 10^5 SCID BM cells): 275
NOD/SCID mice; CB 6 1% FCS, 2 weeks ex-vivo
  Engraftment CD19 (%): 19%
  Engraftment CD34 (%): 16%
  Engraftment CD45 (%): 73%
  Engraftment Colonies (per 2 × 10^5 SCID BM cells): 350
NOD/SCID mice; CB 6 10% FCS, 2 weeks ex-vivo
  Engraftment CD19 (%): 26%
  Engraftment CD34 (%): 9%
  Engraftment CD45 (%): 73%
  Engraftment Colonies (per 2 × 10^5 SCID BM cells): 420
NOD/SCID mice; expanded in the presence of TEPA
  cord blood samples (of 6) expanded ex-vivo that succeeded to engraft the animals: 6
[1]; [4]
  Survival: 5/5
  WBC × 10^6/ml: 0.7 × 10^6/ml
[1]; [5]
  Survival: 5/5
  WBC × 10^6/ml: 1.5 × 10^6/ml
[1]; [6]
  Survival: 5/5
  WBC × 10^6/ml: 0.92 × 10^6/ml
[1]; [7]
  Survival: 5/5
  WBC × 10^6/ml: 10.8 × 10^6/ml
[1]; [8]
  Survival: 5/5
  WBC × 10^6/ml: 0.69 × 10^6/ml
[1]; [9]
  Survival: 5/5
  WBC × 10^6/ml: 1.27 × 10^6/ml
[1]; Exp. III, 5 weeks ex-vivo with TEPA + cytokines, day 19
  Survival: 4/5
[1]; Exp. III, 5 weeks ex-vivo with TEPA + cytokines, day 27
  Survival: 4/5
[1]; bone marrow cells expanded ex-vivo in the presence of TEPA
  WBC recovery vs fresh cells or cells expanded without TEPA: faster
